Tests used:
C57 mice = test: Mouse hot plate experiment; format: in vivo; settings: female C57 mice, subcutaneous, detection 15 minutes after administration, hot plate 56° C., cut-off 30 seconds
Experimental: Test 2: Mouse Hot Plate Experiment
18-22 g of female C57 mice were purchased from Chengdu Dashuo Experimental Animal Co., Ltd. The temperature of the hot plate instrument was set to 56° C., and after reaching 56° C., the temperature was stabilized for 30 minutes before experiment. The animals were placed in a hot plate test in order to observe the reaction of licking the hind feet, which was used as an indicator of pain response. The time from the entry of the animal to the hot plate to the heat-induced licking of the hind feet was recorded. Animals that meet the inclusion criteria (response time to lick the hind foot is less than 25s) are included in the group number. The animals were grouped by baseline threshold, with 10 in each group. Compounds of different concentrations were administered subcutaneously at 10 ml/kg, and a detection was carried out after 15 minutes of administration, with 30 seconds as the cut-off time, and the reaction time was recorded. The results were analyzed statistically, and the % MPE value was calculated according to the formula: % MPE=(Tn−T0)/(30−T0), (Tn is the time for the animal to lick the hind foot after administration, T0 is the time for the animal to lick the foot before administration) The experimental results are shown in Table 2.

Rat PK test = format: in vivo; settings: male SD rats, iv, 1 mg/kg (calculated in free form)
human κ-opioid receptor = biological target: T1, human κ-opioid receptor (Homo sapiens, UniProt P41145); test: Agonist activity on human κ-opioid receptors (inhibition of forskolin-stimulated cAMP release, TR-FRET); format: cell-based; settings: OPRK1 cells (DiscoveRx)
T1 construct: host or cells: OPRK1 cells (DiscoveRx)
T1 sequence (P41145 whole entry): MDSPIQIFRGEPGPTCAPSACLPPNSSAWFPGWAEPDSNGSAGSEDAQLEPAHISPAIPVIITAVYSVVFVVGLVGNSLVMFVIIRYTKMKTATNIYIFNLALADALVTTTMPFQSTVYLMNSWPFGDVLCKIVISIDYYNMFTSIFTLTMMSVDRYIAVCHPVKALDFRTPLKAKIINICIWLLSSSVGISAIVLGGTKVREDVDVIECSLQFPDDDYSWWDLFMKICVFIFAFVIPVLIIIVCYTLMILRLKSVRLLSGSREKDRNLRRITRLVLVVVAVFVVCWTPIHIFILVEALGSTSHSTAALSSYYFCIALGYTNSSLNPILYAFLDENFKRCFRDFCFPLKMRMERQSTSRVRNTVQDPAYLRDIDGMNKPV
Description: Test 1: Agonist Activity on Human κ-Opioid Receptors
Forskolin can stimulate the release of cAMP from a human κ-opioid receptor-overexpressing cell line, OPRK1 cells (DiscoveRx), and κ-opioid receptor agonists can inhibit the cAMP release stimulated by forskolin. By detecting the inhibitory effect of the test compound on the cAMP release stimulated by forskolin, the agonistic activity of the compound on the human κ-opioid receptor can be determined. First, a certain concentration of forskolin and different concentrations of the test compound were incubated with human κ-opioid receptor overexpressing cell lines. A cAMP immunoassay (LANCE®, PerkinElmer) based on time-resolved fluorescence resonance energy transfer (TR-FRET) was used to determine cAMP levels in the stimulated OPRK1 cells. The specific method is as follows:
OPRK1 cells (DiscoveRx) that highly express human κ-opioid receptors were cultured in McCoy's 5A (Gibco 16600-082) medium containing 10% FBS (Gibco 10099-141). On the day of the experiment, the cells in the exponential growth phase were washed and separated with PBS/5 mM EDTA, collected by centrifugation, resuspended with Stimulation Buffer and counted. The concentration of cells was adjusted to 3*10^5 cells/ml. DMSO was used to dissolve Forskolin and the test compound respectively, so that the mother liquor concentration each was 10 mM, and then diluted Forskolin to […] with Stimulation Buffer, and different concentrations of the test compound (the concentrations were 80, 16, 3.2, 0.64, 0.128, 0.0256, 0.00512, 0.001024, 0 μM) was added, 5 μl per well was added to a 384-well plate. 5 μl of cell suspension was added to each well and incubated at room temperature for 30 min. Subsequently, 5 μl of 4×Eu-cAMP tracer working solution (50-fold dilution of Eu-cAMP stock solution with cAMP Detection Buffer) and 5 μl of 4×Ulight-anti-cAMP working solution (150-fold dilution of ULight-anti-cAMP stock solution with cAMP Detection Buffer) were added to each well, and incubated at room temperature for 1 hour. 384-well plates were assayed for cAMP levels using a microplate reader (Perkin Elmer, Envision) TR-FRET method. The obtained data were processed and fitted to EC50 using the origin 7.5 software. The human κ-opioid receptor agonistic activity of the compound of the present invention was measured through the above experiments, and the measured EC50 values are shown in Table 1.
Stimulation Buffer preparation method: 14 mL 1*HBSS (invitrogen, cat. #14025-092), 75 μL 1 M HEPES (Invitrogen, cat. #15630-080), 30 μL 250 mM IBMX was dissolved in DMSO (Sigma, cat. #17018) and mixed with 200 μL 7.5% BSA Stabilizer. pH of the solution was adjusted to 7.4 with 0.1 N NaOH and make up to 15 mL with 1*HBSS.

Mouse PK test = format: in vivo; settings: plasma, male ICR mice, iv, 1 mg/kg (calculated in free form)

| Compound | MPE(%) (C57 mice) | Cl (Rat PK test) [ml/kgmin] | AUC(0-t) (Rat PK test; rat, plasma) [ng·h/mL] | half-life (Rat PK test; rat, plasma) [h] | Vd (Rat PK test; rat, plasma, read-out: Vdss) [L/kg] | EC50 (human κ-opioid receptor) [nM] | AUC(0-t) (Mouse PK test) [ng·h/mL] | half-life (Mouse PK test) [h] |
| --- | --- | --- | --- | --- | --- | --- | --- | --- |
| CC(C)C[C@@H](NC(=O)[C@@H](Cc1ccccc1)NC(=O)[C@H](N)Cc1ccccc1)C(=O)N[C@H](CCCCN)C(=O)N1CCC2(CC1)CC(N)(C(=O)O)C2 [Compound 2, 2-amino-7-[(2R)-6-amino-2-[[(2R)-2-[[(2R)-2-[[(2R)-2-amino-3-phenyl-propanoyl]amino]-3-phenyl-propanoyl]amino]-4-methyl-pentanoyl]amino]hexanoyl]-7-azaspiro[3.5]nonane-2-carboxylic acid; tri-trifluoroacetic acid] | −17.20 | 5.97 | 2660 | 4.22 | 1.47 | 0.41 |  |  |
| CC(C)C[C@@H](NC(=O)[C@@H](Cc1ccccc1)NC(=O)[C@H](N)Cc1ccccc1)C(=O)N[C@H](CCCCN)C(=O)N1CC2(C1)CC1(CNC(=O)C1)C2 [Compound 4, (2R)—N-[(1R)-5-amino-1-(9-oxo-2,8-diazadispiro[3.1.4^6.1^4]undecane-2-carbonyl)pentyl]-2-[[(2R)-2-[[(2R)-2-amino-3-phenyl-propanoyl]amino]-3-phenyl-propanoyl]amino]-4-methyl-pentanamide; di-trifluoroacetic acid] | −19.62 |  |  |  |  | 0.0159 |  |  |
| CC(=O)N1CC2(CCN(C(=O)[C@@H](CCCCN)NC(=O)[C@@H](CC(C)C)NC(=O)[C@@H](Cc3ccccc3)NC(=O)[C@H](N)Cc3ccccc3)CC2)C1 [Compound 8, (2R)—N-[(1R)-1-(2-acetyl-2,7-diazaspiro[3.5]nonane-7-carbonyl)-5-amino-pentyl]-2-[[(2R)-2-[[(2R)-2-amino-3-phenyl-propanoyl]amino]-3-phenyl-propanoyl]amino]-4-methyl-pentanamide; di-trifluoroacetic acid] | −18.61 |  |  |  |  | 0.0112 | 1220 | 5.77 |
| CNC(=O)N1CC2(CCN(C(=O)[C@@H](CCCCN)NC(=O)[C@@H](CC(C)C)NC(=O)[C@@H](Cc3ccccc3)NC(=O)[C@H](N)Cc3ccccc3)CC2)C1 [Compound 15, 7-[(2R)-6-amino-2-[[(2R)-2-[[(2R)-2-[[(2R)-2-amino-3-phenyl-propanoyl]amino]-3-phenyl-propanoyl]amino]-4-methyl-pentanoyl]amino]hexanoyl]-N-methyl-2,7-diazaspiro[3.5]nonane-2-carboxamide; di-trifluoroacetic acid] | −13.29 |  |  |  |  | 0.0117 |  |  |

Reference: patent US11014964B2, “Peptide amide compound and preparation method and medical use thereof” (Sichuan Haisco Pharmaceutical Co., Ltd., priority 2017, dated 2021)
